Data set [1] in a line: Comparative contrast imaging (spin-echo MRI) in mouse after abdominal administration of contrast agents. It counts as in vivo. The conditions noted are these: 0.01M at 0.2 ml/10 g, scanned 40 minutes after administration, Set 1 and Set 2. On the procedure:
As for the samples for obtaining magnetic resonance imaging, the appropriate amounts of Gd-DTPA (a commercial contrast agent, Magnevist manufactured by Schering, Inc.), octa(1,4,7,10-tetraoxaundecyl)Gd-phthalocyanine (hereinafter referred to as GdPC-Fuxl-6) and octa(1,4,7,10-tetraoxaundecyl)Mn-phthalocyanine (hereinafter referred to as MnPC-Fuxl-18) were dissolved in 0.08% saline solution respectively, and the respective samples at concentration of 0.01M were used. This was in reference to the administration of commercial Gd-DTPA in human at 0.5M concentration under the condition of 0.4 ml/kg in 0.2 ml.
The above contrast agents of 0.01M concentration were administrated to mouse at 0.2 ml/10 g (female ICR, 27˜30 g, n=6). In the experiment, […], which is the maximum value in the acceptable range of the dose of the contrast agent, were injected to more clearly ascertain their effects. As for the blank for comparison purposes, the solution of 0.08% NaCl was administered. After the abdominal administration of the contrast agents, followed by a thirty-minute wait, the anesthetics (solution of a mixture of rompum, ketamin, and distilled water at 1.5:1.5:7) were injected thereto in order to sufficiently penetrate the contrast agents into the abdominal organs (the images of which were to be examined). […]

Data set [2] in a line: Light absorption test under X-ray irradiation. Type of data set: physicochemical. As to conditions: 2.45 mole concentration, X-ray irradiated, compared to Iron and Super-Iron. The text has this: The compound of the present invention, GdPC-Fuxl-6, as obtained in Example 1, and the conventional X-ray contrast agents (Iron and Super-Iron) were spread onto the sticks respectively at 2.45 mole concentration, and X-ray was irradiated thereto for comparatively measuring the degree of light absorption.

Data set [3] can be described thus: T1 & T2 measurements of contrast agents (proton relaxation times by NMR). It counts as physicochemical. As to conditions: for T1 / T2: 0.005M in 0.08% physiological saline, 10% heavy water. As for the experimental part:
To these samples, 10% of heavy water was added to obtain a lock signal. As for the blank, 0.08% physiological saline solution was prepared. […] The respective RD values were set sufficiently high in order to eliminate their affects to the test results. […] The respective values of vd and vc as used were those values which were sufficient for parameter-fitting.

Data set [4] can be described thus: Stability test for contrast agents in physiological saline (UV-spectrum, separation of metal ions). It counts as physicochemical. The conditions noted are these: 0.01M in 0.08% physiological saline, 50° C., 24 hours.
The conditions of data set [5]: washed out via urination; cited from earlier work.
Data set [6] can be described thus: Wash-out time / retention time in blood and tissues. The conditions noted are these: in vivo. As for the experimental part: The retention time (in blood) of the complex compound of said structural formula (I) according to the present invention is within the clinically effective range. Whereas DTPA-Gd, which is a conventional contrast agent, has a wash-out time of approximately 30 minutes, the compound of said structural formula (I) of the present invention has a wash-out time (from the tissues) of approximately 1 hour and 30 minutes. […] Today, in using MR angiography, which has undergone significant advancement, a pulse sequence is required. However, the contrast agent of the present invention can contrast vessels without such pulse sequence while it is also useful as a diagnostic contrast agent for intravenous administration.

This is an account of results in US7005517B2, “Paramagnetic metal-phthalocyanine complex compounds and contrast agent using the same” (priority 2001, dated 2006).

Consider “octa(1,4,7,10-tetraoxaundecyl)Gd-phthalocyanine [GdPC-Fuxl-6]”, for which the “contrast effects in T1 intensified images” value in data set [1] is “good contrast effects”. The “degree of light absorption” value in data set [2] is on record as “superior characteristics with respect to light absorption”. Besides, in data set [3] (80 MHz NMR), the “T1 (degree of relaxation)” value amounted to 24.3 ms, the “T2 (degree of relaxation)” value was 17.4 ms, the T1 was 0.0243 s and the T2 was found to be 0.0174 s. Moreover, in data set [3] (300 MHz NMR), the T1 was 0.0488 s and the T2 is 0.0234 s. Further, the “stability (no separation of Gd and Mn ions)” value in data set [4] is reported as “stabilized for 24 hours”.

Regarding `O=C([O-])CN(CCN(CC(=O)[O-])CC(=O)[O-])CCN(CC(=O)[O-])CC(=O)[O-].[Gd+3]` [Gd-DTPA, complex of diethylenetriaminepentaactic acid (DTPA) and gadolinium (III), reference compound], the half-life period result in data set [5] is recorded as “about 14 minutes”. The wash-out time result in data set [6] is listed as “approximately 30 minutes”. The T1 was found to be 0.0484 s in data set [3] (80 MHz NMR) and 0.0370 s in data set [3] (300 MHz NMR). Besides, the results for the T2 in data set [3] (80 MHz NMR) and in data set [3] (300 MHz NMR) were 0.0441 s and 0.261 s, respectively.

As for “octa(1,4,7,10-tetraoxaundecyl)Mn-phthalocyanine [MnPC-Fuxl-18]”, the “contrast effects in T1 intensified images” value in data set [1] is on record as “good contrast effects”. For the same molecule, in data set [3] (80 MHz NMR), the “T1 (degree of relaxation)” value is given as 191 ms, the “T2 (degree of relaxation)” value is given as 33.5 ms, the T1 amounted to 0.191 s and the T2 stood at 0.0335 s. In data set [3] (300 MHz NMR), this molecule displayed a T1 of 0.317 s and a T2 of 0.0207 s. Further, the “stability (no separation of Gd and Mn ions)” value in data set [4] is “stabilized for 24 hours”.
